Measured values as given in patent publication US20240067657A1, “AMIDO-SUBSTITUTED PYRIDYL COMPOUNDS AND METHODS OF USE THEREOF FOR THE TREATMENT OF HERPESVIRUSES” (Merck Sharp & Dohme LLC, priority 2020, published 2024).
Where two headings read alike, the source gives them in different places.

How the values were obtained:
[1] = test system: HCMV Strain AD169 in MRC-5 cells; test: Viral qPCR assay HCMV (V0/V1, V2/V3), EC50; type: cell-based
Procedure: (§1) Viral qPCR Assays (V0/V1)
(§2) MRC5 cells, Vero cells, and MeWo cells were obtained from ATCC and were maintained at 37° C./5% CO2/90% relative humidity in Minimal Essential Medium with 10% fetal bovine serum, […] L-glutamine, 100 units/ml penicillin and 100 ug/ml streptomycin. Assay plates were prepared by dispensing compounds dissolved in DMSO into wells of 384 well collagen-coated plates using an ECHO acoustic dispenser. Each compound was tested in a 10-point, serial 3-fold dilution. Controls included uninfected cells and infected cells treated only with DMSO. Assays were initiated by mixing selected cells, in suspension, with virus, and dispensing 50 μl/well infected cells to pre-plated compounds. Plates were incubated at 37° C./5% CO2/90% relative humidity for ˜72 hrs to permit genomic replication, and infected cells were lysed by the addition of an equal volume of lysis buffer (10 mM Tris-HCl, pH8, 50 mM KCl, 2 mM MgCl2, 0.45% NP-40, 0.45% Tween-20, and 100 μg/ml proteinase K). An aliquot of the lysate was transferred to a 384-well PCR plate and incubated at 56° C. for 1 hour and then at 95° C. for 10 min. Levels of a viral gene and of the cellular control, PPIA (Thermo Fisher Assay ID=Hs04194521_s1), were measured in separate 10 μL qPCR assays using TaqMan® Gene Expression Master Mix (Applied Biosystems), and an 7900HT Fast Real-Time PCR System with 384-Well Block Module. 7-point, serial 10-fold dilutions of a plasmid standard were run on each plate to generate a standard curve, and genome copies numbers were calculated by plotting experimental Ct onto linear regression of the standard curve. Viral genome copy numbers were normalized by cellular control copy number, and compound effects were normalized to the window defined by the controls. Calculated % effects were fit using a 4-parameter algorithm, and EC50 was reported.
(§3) Viral qPCR Assays (V2/V3)
as §2, with “gene” for “gene and of the cellular control, PPIA (Thermo Fisher Assay ID=Hs04194521_s1),”, “in” for “in separate”, “Compound effects on viral” for “Viral”, “number” for “numbers were normalized by cellular control copy number, and compound effects”, “reported. • HCMV: Strain AD169 Street was assayed in MRC-5 cells and was used at 0.05-0.1 pfu/cell. The assays were performed in either growth media or in the same media with 50% fetal bovine serum. Primer-probe set was Thermo Fisher Assay ID=AIFATFK. • VZV: Strain Street was maintained as an infected cell stock in MRC-5 cells. It was assayed in MeWo or MRC5 cells and was used at 0.04-0.1 pfu/cell. […]” for “reported.”

[2] = molecular target: T1, Human cytomegalovirus DNA polymerase (Human cytomegalovirus, UniProt P08546); test: HCMV polymerase assay (AlphaLISA, IC50); type: biochemical; settings: polymerase assay of Example 190
T1 construct: made in house; host or cells: SF21 insect cells (baculovirus vector)
T1 sequence (P08546 whole entry): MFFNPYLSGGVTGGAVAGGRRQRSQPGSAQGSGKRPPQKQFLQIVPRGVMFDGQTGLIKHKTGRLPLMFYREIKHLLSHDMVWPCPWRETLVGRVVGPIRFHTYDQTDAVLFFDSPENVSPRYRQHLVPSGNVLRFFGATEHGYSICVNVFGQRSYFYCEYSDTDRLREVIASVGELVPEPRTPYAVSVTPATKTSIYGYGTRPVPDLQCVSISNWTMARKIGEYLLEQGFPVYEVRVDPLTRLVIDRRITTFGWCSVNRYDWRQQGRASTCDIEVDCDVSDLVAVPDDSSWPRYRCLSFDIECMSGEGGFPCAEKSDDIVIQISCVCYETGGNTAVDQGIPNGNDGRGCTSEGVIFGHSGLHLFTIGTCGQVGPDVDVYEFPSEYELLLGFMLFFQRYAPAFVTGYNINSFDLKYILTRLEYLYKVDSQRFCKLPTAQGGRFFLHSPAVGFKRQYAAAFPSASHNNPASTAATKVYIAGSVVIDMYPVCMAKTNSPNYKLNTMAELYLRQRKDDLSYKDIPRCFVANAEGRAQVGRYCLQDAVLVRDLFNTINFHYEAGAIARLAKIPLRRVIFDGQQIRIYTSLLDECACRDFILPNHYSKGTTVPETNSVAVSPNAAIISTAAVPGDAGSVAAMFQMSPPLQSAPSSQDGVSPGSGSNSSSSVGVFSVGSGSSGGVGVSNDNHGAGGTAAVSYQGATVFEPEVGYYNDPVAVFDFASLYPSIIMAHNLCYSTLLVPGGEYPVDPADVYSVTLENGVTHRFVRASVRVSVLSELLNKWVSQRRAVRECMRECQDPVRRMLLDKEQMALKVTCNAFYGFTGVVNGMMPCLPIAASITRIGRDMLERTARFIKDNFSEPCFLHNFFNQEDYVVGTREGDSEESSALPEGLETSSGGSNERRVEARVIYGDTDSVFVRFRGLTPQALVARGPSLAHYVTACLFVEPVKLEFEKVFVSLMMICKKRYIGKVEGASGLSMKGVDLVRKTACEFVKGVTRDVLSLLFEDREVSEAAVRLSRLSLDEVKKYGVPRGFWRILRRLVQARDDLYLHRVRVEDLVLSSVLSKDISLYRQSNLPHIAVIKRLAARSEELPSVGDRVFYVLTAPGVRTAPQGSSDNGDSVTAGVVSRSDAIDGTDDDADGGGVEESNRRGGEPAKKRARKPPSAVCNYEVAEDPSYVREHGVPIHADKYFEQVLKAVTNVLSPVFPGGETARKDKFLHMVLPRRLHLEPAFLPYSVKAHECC
Procedure: Human cytomegalovirus and varicella zoster virus DNA polymerases were expressed via baculovirus vector in SF21 cells and purified. Heterodimeric nucleic acid substrate used in the herpesvirus polymerase reactions was generated by annealing a 59-mer template to a 17-mer digoxigenin-labeled primer. Polymerase (HCMV final concentration of 0.2 nM; VZV final concentration of 0.4 nM) was combined with an inhibitor compound or DMSO in assay buffer (10 mM HEPES, pH 7.5, 25 mM KCl, 25 mM NaCl, 5 mM MgCl2, 5% glycerol, 0.67 mg/ml bovine serum albuminutes, and 1 mM tris(2-carboxyethyl)phosphine), and this mixture was pre-incubated for 30 minutes at room temperature in 384-well microtiter plates. The polymerization reaction was initiated by the addition of template/primer substrate (final concentration: 1.6 nM), and dNTPs (final concentration: 24 nM dCTP, 24 nMdGTP, 16 nM dATP, 16 nM dTTP, and 0.8 nM biotin-dUTP). After 60 minutes incubation at 37° C., reactions were terminated with quench buffer (25 mM HEPES pH 7.5, 100 mM NaCl, 0.25% Tween-20, 12 mM EDTA, and 1 mg/ml bovine serum albumin). Incorporation of biotinylated UTP was detected with 2.5-5 ug/ml anti-DIG AlphaLISA acceptor beads and 5-10 ug/ml streptavidin AlphaLISA donor beads (Perkin Elmer). Compound effects were normalized to the window defined by the controls (DMSO only and pre-quenched wells), and were fit using a 4-parameter algorithm to report an IC50.

[3] = test system: HSV-1 Strain F in Vero or MRC5 cells; test: Viral qPCR assay HSV-1 (V0/V1, V2/V3), EC50; type: cell-based; settings: Human alphaherpesvirus 1, MRC5, MRC5 cells, 10%; read-out: HSV1 Cell (EC50) MRC5 10%
Procedure: as §1, §2, §3
as §2, with “gene” for “gene and of the cellular control, PPIA (Thermo Fisher Assay ID=Hs04194521_s1),”, “in” for “in separate”, “Compound effects on viral” for “Viral”, “number” for “numbers were normalized by cellular control copy number, and compound effects”, “reported. • HCMV: Strain AD169 Street was assayed in MRC-5 cells and was used at 0.05-0.1 pfu/cell. The assays were performed in either growth media or in the same media with 50% fetal bovine serum. Primer-probe set was Thermo Fisher Assay ID=AIFATFK. • VZV: Strain Street was maintained as an infected cell stock in MRC-5 cells. It was assayed in MeWo or MRC5 cells and was used at 0.04-0.1 pfu/cell. […]” for “reported.”

[4] = test system: VZV in MeWo or MRC5 cells; test: Viral qPCR assay VZV (V0/V1, V2/V3), EC50; type: cell-based; settings: Human alphaherpesvirus 3, MRC5, MRC5 cells, 10%; read-out: VZV Cell (EC50) MRC5 10%
Procedure: as §1, §2, §3
as §2, with “gene” for “gene and of the cellular control, PPIA (Thermo Fisher Assay ID=Hs04194521_s1),”, “in” for “in separate”, “Compound effects on viral” for “Viral”, “number” for “numbers were normalized by cellular control copy number, and compound effects”, “reported. • HCMV: Strain AD169 Street was assayed in MRC-5 cells and was used at 0.05-0.1 pfu/cell. The assays were performed in either growth media or in the same media with 50% fetal bovine serum. Primer-probe set was Thermo Fisher Assay ID=AIFATFK. • VZV: Strain Street was maintained as an infected cell stock in MRC-5 cells. It was assayed in MeWo or MRC5 cells and was used at 0.04-0.1 pfu/cell. […]” for “reported.”

[5] = Human betaherpesvirus 5, AD169, MRC5, viral qPCR assay of Example 191, read-out: HCMV Cell (EC50)

Compound | EC50 [1, 5] [µM] | IC50 [2] [µM] | EC50 [3] [µM] | EC50 [4] [µM] | EC50 ([1]; Human betaherpesvirus 5, AD169, MRC5, read-out: HCMV Cell (EC50)) [µM]
CC(=O)N1CCC(Oc2cc(C(=O)NCc3ccc(Cl)cc3)ncc2-c2cn(C)nn2)CC1 [Compound 59] | 0.976 | 0.151 | – | – | –
CC(C)(O)C1CN(c2cnc(C(=O)NCc3ccc(Cl)cc3)cc2O[C@H]2CCN3C(=O)OC[C@@H]3C2)C1 [Compound 121] | 0.257 | 0.0365 | – | – | –
CC(=O)N1CCC(Oc2cc(C(=O)NCc3ccc(Cl)cc3)ncc2-c2cnn(C(F)F)c2)CC12CC2 (centres unmarked) [Compound 160] | 1.4 | 0.135 | – | – | –
CC(=O)N1CCC(Oc2cc(C(=O)NCc3ccc(Cl)cc3)ncc2-c2cnoc2)CC1 [Compound 53] | 1.84 | 0.0565 | – | – | –
O=C(c1cc(O[C@H]2CCN3C(=O)OC[C@@H]3C2)c(-c2cnn(C(F)F)c2)cn1)N(CO)Cc1ccc(Cl)cc1 [Compound 180] | 0.183 | 0.0292 | 0.176 | 0.265 | –
CC(=O)N1CCC(Oc2cc(C(=O)NCc3ccc(Cl)cc3)ncc2-c2cnn(C)n2)CC1 [Compound 7] | 0.552 | 0.122 | 0.53 | 0.707 | –
O=C(OCN(Cc1ccc(Cl)cc1)C(=O)c1cc(O[C@H]2CCN3C(=O)OC[C@@H]3C2)c(-c2cnn(C(F)F)c2)cn1)C1CCOCC1 [Compound 182] | 0.148 | 0.227 | 0.105 | 0.213 | –
O=C(NCc1ccc(Cl)cc1Cl)c1cc(O[C@H]2CCN3C(=O)OC[C@@H]3C2)c(-c2cnn(C(F)F)c2)cn1 [Compound 85] | 0.888 | 0.0653 | 1.64 | 4.71 | –
O=C(NCc1ccc(Cl)cc1)c1cc(O[C@H]2CCN3C(=O)OC[C@@H]3C2)c(N2CCOCC2)cn1 [Compound 116] | 0.791 | 0.0848 | 2.42 | 3.6 | –
CN1CCN(c2cc(C(=O)NCc3ccc(Cl)cc3)ncc2C#N)[C@H](CF)C1 [Compound 173] | 0.279 | 0.0123 | 0.833 | 0.682 | –
CS(=O)(=O)c1cnc(C(=O)NCc2ccc(Cl)cc2)cc1O[C@H]1CCN2C(=O)OC[C@@H]2C1 [Compound 147] | 12.7 | 0.804 | – | – | –
O=C(NCc1ccc(Br)cc1)c1cc(O[C@H]2CCN3C(=O)OC[C@@H]3C2)c(-c2cnn(C(F)F)c2)cn1 [Compound 83] | 0.549 | 0.012 | 0.274 | 0.147 | –
COCCOC(=O)N(Cc1ccc(Cl)cc1)C(=O)c1cc(O[C@H]2CCN3C(=O)OC[C@@H]3C2)c(-c2cnn(C(F)F)c2)cn1 [Compound 179] | 1.39 | 0.107 | – | – | –
C[C@@H]1CN(C)CCN1c1cc(C(=O)NCc2ccc(Cl)cc2)nc(-c2cnn(CCO)c2)c1 [Compound 177] | – | 0.601 | – | – | 1.41
CC(C)[C@H](N)C(=O)OCN(Cc1ccc(Cl)cc1)C(=O)c1cc(O[C@H]2CCN3C(=O)OC[C@@H]3C2)c(-c2cnn(C(F)F)c2)cn1 [Compound 185] | 0.126 | 0.0252 | 0.152 | 0.263 | –
O=C(NCc1ccc(I)cc1)c1cc(O[C@H]2CCN3C(=O)OC[C@@H]3C2)c(-c2cnn(C(F)F)c2)cn1 [Compound 89] | 1.52 | 0.187 | – | – | –
O=C(NCc1ccc(Cl)cc1)c1cc(O[C@H]2CCN3C(=O)OC[C@@H]3C2)c(N2CC3(CC(O)C3)C2)cn1 [Compound 118] | 0.579 | 0.0388 | – | – | –
CC(=O)N1CCC(Oc2cc(C(=O)NCc3ccc(Cl)cc3)ncc2-c2cnsc2)CC1 [Compound 47] | 1.16 | 0.136 | – | – | –
CN1CCC(C(=O)OCN(Cc2ccc(Cl)cc2)C(=O)c2cc(O[C@H]3CCN4C(=O)OC[C@@H]4C3)c(-c3cnn(C(F)F)c3)cn2)CC1 [Compound 183] | 0.15 | 0.201 | – | – | –
O=C(NCc1ccc(C(F)(F)F)cc1)c1cc(O[C@H]2CCN3C(=O)OC[C@@H]3C2)c(-c2cnn(C(F)F)c2)cn1 [Compound 104] | 5.98 | 0.273 | – | – | –
CC(=O)N1CCC(Oc2cc(C(=O)NCc3ccc(Cl)cc3)ncc2-c2cn(C)c(CCO)n2)CC1 [Compound 55] | 0.781 | 0.0654 | – | – | –
Cc1cnc(C(=O)NCc2ccc(Cl)cc2)cc1OC1CCC(=O)N(C)CC1 (centres unmarked) [Compound 99] | 4.01 | 0.407 | – | – | –
CC(C)(O)C12CC(C1)N(c1cnc(C(=O)NCc3ccc(Cl)cc3)cc1O[C@H]1CCN3C(=O)OC[C@@H]3C1)C2 [Compound 123] | 1.31 | 0.16 | – | – | –
CC(=O)N1CCC(Oc2cc(C(=O)NCc3ccc(Cl)cc3)ncc2-c2cnsn2)CC1 [Compound 58] | 1.81 | 0.155 | – | – | –
CC(=O)N1CCC(Oc2cc(C(=O)NCc3ccc(Cl)cc3)ncc2-c2ccsn2)CC1 [Compound 60] | 1.49 | 0.197 | – | – | –
CC(C)(N)C1CCN(c2cnc(C(=O)NCc3ccc(Cl)cc3)cc2O[C@H]2CCN3C(=O)OC[C@@H]3C2)C1 (some centres unmarked) [Compound 119] | 0.747 | 0.0652 | – | – | –
